Test results as given in publication PMC4076294 (Journal of the American Chemical Society, 2014).
“And” between values parts separate entries of the source, which are not always exact repeats. Equal values may be shown once.

Experiments:
[1] = comparison values; cited from earlier work
[2] = test system: A2780 ovarian cancer cells; assay: LIVE/DEAD cell viability assay; format: cell-based, human; settings: 10 μM, 48 h
A2780 = assay: MTT assay; format: cell-based, human; settings: read-out: IC50 at 48 h; A2780, 48 h
[3] = test system: nuclear DNA of A2780 cells; assay: DNA platination experiment; format: cell-based, human; settings: 5 μM, 5 h, then 16 h in fresh media

| Structure (SMILES) | half-life in blood (t1/2) [1] | LIVE/DEAD cell assay outcome [2] | IC50 (A2780) | extent of DNA platination [3] |
| --- | --- | --- | --- | --- |
| CC(=O)[O][Pt]([NH2])([Cl])([Cl])([NH]C1CCCCC1)[O]C(C)=O [satraplatin] | 6.3 min and ~6 min |  |  |  |
| N.N.[Cl][Pt][Cl] [cisplatin] |  | mostly survived | 6.35 ± 1.39 µM | 36.4 ± 5.5 Pt adducts/10^6 nucleotides |
